Reference: patent US9044485B2, “Ceftolozane antibiotic compositions” (priority 2013, dated 2015)

Key:
[1] = Intrinsic pH of ceftolozane in solution; format: physicochemical; details: in solution (2%)
P. aeruginosa = assay: Minimum inhibitory concentration (MIC90); format: cell-based; details: Pseudomonas aeruginosa
Enterobacteriaceae = assay: In vitro activity against Gram-positive and Gram-negative bacteria (surveillance data); format: cell-based; details: against Acinetobacter spp. and common species of Enterobacteriaceae
Protocol: The in vitro activity of ceftolozane and ceftolozane/tazobactam was evaluated against a broad range of Gram-positive and Gram-negative bacteria.

## Cn1c(N)c(NC(=O)NCCN)c[n+]1CC1=C(C(=O)O)N2C(=O)[C@@H](NC(=O)/C(=N\OC(C)(C)C(=O)O)c3nsc(N)n3)[C@H]2SC1 [ceftolozane, (6R,7R)-3-[(5-amino-4-{[(2-aminoethyl)carbamoyl]amino}-1-methyl-1H-pyrazol-2-ium-2-yl)methyl]-7-({(2Z)-2-(5-amino-1,2,4-thiadiazol-3-yl)-2-[(1-carboxy-1-methylethoxy)imino]acetyl}amino)-8-oxo-5-thia-1-azabicyclo[4.2.0]oct-2-ene-2-carboxylate]
[1]
  intrinsic pH: 1.92
P. aeruginosa
  MIC90: ≤ 2 µg/mL

## C[C@]1(Cn2ccnn2)[C@H](C(=O)O)N2C(=O)C[C@H]2S1(=O)=O [tazobactam, (2S,3S,5R)-3-methyl-7-oxo-3-(1H-1,2,3-triazol-1-ylmethyl)-4-thia-1-azabicyclo[3.2.0]heptane-2-carboxylic acid 4,4-dioxide]
Enterobacteriaceae
  effect on in vitro activity of ceftolozane (in words): potentiated the activity of ceftolozane
